Measured values reported in PubChem BioAssay AID1918996 (Molecular Pharmacology Branch, DTP, NCI, 2023).

Test system: 349418-098-R-PDC complex spheroid growth
Assay: Anticancer human tumor 349418-098-R-PDC patient-derived lung adenocarcinoma cell line growth inhibition [AhR]
Conditions: for IC50: curve of first compound; for viability, T/C: stronger effect = lower value
In short: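 Spheroids combined tumor cells with HUVEC endothelial cells and human MSCs as stroma. AhR antagonists were paired with standard or investigational drugs, each dosed in half-log steps down from near clinical Cmax, or from 10 microM where Cmax was unknown.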

[1] = second compound 0.1 µM, first compound 0.000949 µM
[2] = second compound 0.1 µM, first compound 0.003 µM
[3] = second compound 0.1 µM, first compound 0.00949 µM
[4] = second compound 0.1 µM, first compound 0.03 µM
[5] = second compound 0.1 µM, first compound 0.0949 µM
[6] = second compound 0.1 µM, first compound 0.3 µM
[7] = second compound 0.316 µM, first compound 0.000949 µM
[8] = second compound 0.316 µM, first compound 0.003 µM
[9] = second compound 0.316 µM, first compound 0.00949 µM
[10] = second compound 0.316 µM, first compound 0.03 µM
[11] = second compound 0.316 µM, first compound 0.0949 µM
[12] = second compound 0.316 µM, first compound 0.3 µM
[13] = second compound 1 µM, first compound 0.000949 µM
[14] = second compound 1 µM, first compound 0.003 µM
[15] = second compound 1 µM, first compound 0.00949 µM
[16] = second compound 1 µM, first compound 0.03 µM
[17] = second compound 1 µM, first compound 0.0949 µM
[18] = second compound 1 µM, first compound 0.3 µM
[19] = second compound 3.16 µM, first compound 0.000949 µM
[20] = second compound 3.16 µM, first compound 0.003 µM
[21] = second compound 3.16 µM, first compound 0.00949 µM
[22] = second compound 3.16 µM, first compound 0.03 µM
[23] = second compound 3.16 µM, first compound 0.0949 µM
[24] = second compound 3.16 µM, first compound 0.3 µM
[25] = second compound 10 µM, first compound 0.000949 µM
[26] = second compound 10 µM, first compound 0.003 µM
[27] = second compound 10 µM, first compound 0.00949 µM
[28] = second compound 10 µM, first compound 0.03 µM
[29] = second compound 10 µM, first compound 0.0949 µM
[30] = second compound 10 µM, first compound 0.3 µM
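Further: spheroids exposed to agents for seven days before luminescence viability read.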
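Wherever viability, T/C is given: spheroids also contain HUVEC endothelial cells and human MSC stroma.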

Compound: CC(C)CC(NC(=O)C(Cc1ccccc1)NC(=O)c1cnccn1)B(O)O (stereo not given) + Cc1ccccc1N=Nc1ccc(NC(=O)c2ccnn2C)c(C)c1
- IC50 (second compound 0.1 µM): < 0.949 nM
- IC50 (second compound 0.316 µM): < 0.949 nM
- IC50 (second compound 1 µM): 1.18 nM
- IC50 (second compound 3.16 µM): 1.06 nM
- IC50 (second compound 10 µM): < 0.949 nM
- viability, T/C [1]: 46.8%
- viability, T/C [2]: 11.1%
- viability, T/C [3]: 3.13%
- viability, T/C [4]: 1.55%
- viability, T/C [5]: 1.77%
- viability, T/C [6]: 0.98%
- viability, T/C [7]: 48.2%
- viability, T/C [8]: 11.7%
- viability, T/C [9]: 2.73%
- viability, T/C [10]: 1.61%
- viability, T/C [11]: 1.03%
- viability, T/C [12]: 1.37%
- viability, T/C [13]: 58.5%
- viability, T/C [14]: 13.4%
- viability, T/C [15]: 2.69%
- viability, T/C [16]: 1.87%
- viability, T/C [17]: 1.39%
- viability, T/C [18]: 1.15%
- viability, T/C [19]: 53.7%
- viability, T/C [20]: 14%
- viability, T/C [21]: 2.77%
- viability, T/C [22]: 1.76%
- viability, T/C [23]: 1.72%
- viability, T/C [24]: 1.32%
- viability, T/C [25]: 41.6%
- viability, T/C [26]: 14.5%
- viability, T/C [27]: 2.75%
- viability, T/C [28]: 1.8%
- viability, T/C [29]: 1.43%
- viability, T/C [30]: 1.45%

Compound: CCc1c2c(nc3ccc(O)cc13)-c1cc3c(c(=O)n1C2)COC(=O)[C@]3(O)CC + Cc1ccccc1N=Nc1ccc(NC(=O)c2ccnn2C)c(C)c1
- IC50 (second compound 0.1 µM): 3.8 nM
- IC50 (second compound 0.316 µM): < 0.949 nM
- IC50 (second compound 1 µM): < 0.949 nM
- IC50 (second compound 3.16 µM): < 0.949 nM
- IC50 (second compound 10 µM): < 0.949 nM
- viability, T/C [1]: 75.5%
- viability, T/C [2]: 57.2%
- viability, T/C [3]: 22.3%
- viability, T/C [4]: 12.3%
- viability, T/C [5]: 8.18%
- viability, T/C [6]: 7.18%
- viability, T/C [7]: 44.2%
- viability, T/C [8]: 32.8%
- viability, T/C [9]: 21%
- viability, T/C [10]: 9.78%
- viability, T/C [11]: 7.84%
- viability, T/C [12]: 5.78%
- viability, T/C [13]: 29.9%
- viability, T/C [14]: 27.3%
- viability, T/C [15]: 19.7%
- viability, T/C [16]: 10.3%
- viability, T/C [17]: 7.94%
- viability, T/C [18]: 6.46%
- viability, T/C [19]: 34.6%
- viability, T/C [20]: 33.5%
- viability, T/C [21]: 15.8%
- viability, T/C [22]: 10%
- viability, T/C [23]: 7.13%
- viability, T/C [24]: 6.47%
- viability, T/C [25]: 37.7%
- viability, T/C [26]: 27.6%
- viability, T/C [27]: 15.2%
- viability, T/C [28]: 10.4%
- viability, T/C [29]: 7.83%
- viability, T/C [30]: 6.4%

Compound: Nc1ccccc1NC(=O)c1ccc(CNC(=O)OCc2cccnc2)cc1 + Cc1ccccc1N=Nc1ccc(NC(=O)c2ccnn2C)c(C)c1
- IC50 (second compound 0.1 µM): 1260 nM
- IC50 (second compound 0.316 µM): 999 nM
- IC50 (second compound 1 µM): 992 nM
- IC50 (second compound 3.16 µM): 1010 nM
- IC50 (second compound 10 µM): 919 nM
- viability, T/C (second compound 0.1 µM, first compound 0.0316 µM): 104%
- viability, T/C (second compound 0.1 µM, first compound 0.1 µM): 97.7%
- viability, T/C (second compound 0.1 µM, first compound 0.316 µM): 75.7%
- viability, T/C (second compound 0.1 µM, first compound 1 µM): 64.6%
- viability, T/C (second compound 0.1 µM, first compound 3.16 µM): 19.4%
- viability, T/C (second compound 0.1 µM, first compound 10 µM): 5.78%
- viability, T/C (second compound 0.316 µM, first compound 0.0316 µM): 84.6%
- viability, T/C (second compound 0.316 µM, first compound 0.1 µM): 85.3%
- viability, T/C (second compound 0.316 µM, first compound 0.316 µM): 72%
- viability, T/C (second compound 0.316 µM, first compound 1 µM): 52.1%
- viability, T/C (second compound 0.316 µM, first compound 3.16 µM): 17.2%
- viability, T/C (second compound 0.316 µM, first compound 10 µM): 5.9%
- viability, T/C (second compound 1 µM, first compound 0.0316 µM): 97.7%
- viability, T/C (second compound 1 µM, first compound 0.1 µM): 76%
- viability, T/C (second compound 1 µM, first compound 0.316 µM): 87.2%
- viability, T/C (second compound 1 µM, first compound 1 µM): 47.6%
- viability, T/C (second compound 1 µM, first compound 3.16 µM): 18.5%
- viability, T/C (second compound 1 µM, first compound 10 µM): 6.58%
- viability, T/C (second compound 3.16 µM, first compound 0.0316 µM): 86.5%
- viability, T/C (second compound 3.16 µM, first compound 0.1 µM): 82.5%
- viability, T/C (second compound 3.16 µM, first compound 0.316 µM): 76.5%
- viability, T/C (second compound 3.16 µM, first compound 1 µM): 50.1%
- viability, T/C (second compound 3.16 µM, first compound 3.16 µM): 18.5%
- viability, T/C (second compound 3.16 µM, first compound 10 µM): 5.98%
- viability, T/C (second compound 10 µM, first compound 0.0316 µM): 66.4%
- viability, T/C (second compound 10 µM, first compound 0.1 µM): 60.9%
- viability, T/C (second compound 10 µM, first compound 0.316 µM): 68.1%
- viability, T/C (second compound 10 µM, first compound 1 µM): 48%
- viability, T/C (second compound 10 µM, first compound 3.16 µM): 17%
- viability, T/C (second compound 10 µM, first compound 10 µM): 8.83%
